Data as given in publication PMC12919657 (Results in chemistry, 2025).

Test: pKa determination
Type: physicochemical
Settings: methanol / 1 N HCl solution

Structure (SMILES): O=C(CCCN1CCC(O)(c2ccc(Cl)cc2)CC1)c1ccc(F)cc1 [Haloperidol]
- pKa: 8.22 ± 0.09
